From ChEMBL document CHEMBL1828549, “Novel C-4'' modified azithromycin analogs with remarkably enhanced activity against erythromycin-resistant Streptococcus pneumoniae: the synthesis and antimicrobial evaluation” (2011)
In brackets after ≈: the same amount, converted by molar mass.

Columns and labels:
[1] = test system: Streptococcus pneumoniae; assay: Ratio of erythromycin-A MIC to compound MIC for erythromycin-resistant Streptococcus pneumoniae A22072 expressing mef gene; assay type: functional
[2] = test system: Streptococcus pneumoniae; assay: Ratio of azithromycin MIC to compound MIC for erythromycin-resistant Streptococcus pneumoniae A22072 expressing mef gene; assay type: functional
[3] = test system: Streptococcus pneumoniae; assay: Antibacterial activity against erythromycin-resistant Streptococcus pneumoniae AB11 expressing erm and mef gene by the broth microdilution method; assay type: functional
[4] = test system: Streptococcus pneumoniae; assay: Antibacterial activity against erythromycin-resistant Streptococcus pneumoniae B1 expressing erm gene by the broth microdilution method; assay type: functional
[5] = test system: Staphylococcus aureus; assay: Antibacterial activity against erythromycin-susceptible Staphylococcus aureus ATCC 25923 by the broth microdilution method; assay type: functional
[6] = test system: Streptococcus pneumoniae; assay: Antibacterial activity against erythromycin-resistant Streptococcus pneumoniae A22072 expressing mef gene by the broth microdilution method; assay type: functional
[7] = test system: Streptococcus pneumoniae; assay: Antibacterial activity against erythromycin-susceptible Streptococcus pneumoniae ATCC 49619 by the broth microdilution method; assay type: functional
[8] = test system: Streptococcus pneumoniae; assay: Ratio of MIC for erythromycin-resistant Streptococcus pneumoniae B1 expressing erm gene to MIC of reference compound for the same strain
[9] = test system: Staphylococcus aureus; assay: Antibacterial activity against […] Staphylococcus aureus ATCC 29213 by the broth microdilution method; assay type: functional
[10] = test system: Streptococcus pneumoniae; assay: Ratio of MIC for Streptococcus pneumoniae AB11 expressing erm and mef gene to MIC of reference compound for the same strain
[11] = test system: Staphylococcus aureus; assay: Antibacterial activity against penicillin-resistant Staphylococcus aureus by the broth microdilution method; assay type: functional

Compound | Ratio [1] | Ratio [2] | MIC [3] | MIC [4] | MIC [5] | MIC [6] | MIC [7] | Ratio [8] | MIC [9] | Ratio [10] | MIC [11]
CC[C@H]1OC(=O)[C@H](C)[C@@H](O[C@H]2C[C@@](C)(OC)[C@@H](OC(=O)NNC(=O)c3ccc(C)cc3)[C@H](C)O2)[C@H](C)[C@@H](O[C@@H]2O[C@H](C)C[C@H](N(C)C)[C@H]2O)[C@](C)(O)C[C@@H](C)CN(C)[C@H](C)[C@H]2OC(=O)O[C@@]21C | 64 | 32 | 16 µg/mL (≈ 16.8 µM) | 2 µg/mL (≈ 2.1 µM) | 4 µg/mL (≈ 4.21 µM) | 0.12 µg/mL (≈ 0.126 µM) | 1 µg/mL (≈ 1.05 µM) | 64 | 4 µg/mL (≈ 4.21 µM) | 16 | 4 µg/mL (≈ 4.21 µM)
CC[C@H]1OC(=O)[C@H](C)[C@@H](O[C@H]2C[C@@](C)(OC)[C@@H](OC(=O)NCCNC(=O)c3cc([N+](=O)[O-])cc([N+](=O)[O-])c3)[C@H](C)O2)[C@H](C)[C@@H](O[C@@H]2O[C@H](C)C[C@H](N(C)C)[C@H]2O)[C@](C)(O)C[C@@H](C)CN(C)[C@H](C)[C@H]2OC(=O)O[C@@]21C | 64 | 32 | 8 µg/mL (≈ 7.58 µM) | 1 µg/mL (≈ 0.948 µM) | 16 µg/mL (≈ 15.2 µM) | 0.12 µg/mL (≈ 0.114 µM) | 0.12 µg/mL (≈ 0.114 µM) | 128 | 8 µg/mL (≈ 7.58 µM) | 32 | 1 µg/mL (≈ 0.948 µM)
CC[C@H]1OC(=O)[C@H](C)[C@@H](O[C@H]2C[C@@](C)(OC)[C@@H](OC(=O)NCCCCNC(=O)c3cc([N+](=O)[O-])cc([N+](=O)[O-])c3)[C@H](C)O2)[C@H](C)[C@@H](O[C@@H]2O[C@H](C)C[C@H](N(C)C)[C@H]2O)[C@](C)(O)C[C@@H](C)CN(C)[C@H](C)[C@H]2OC(=O)O[C@@]21C | 64 | 32 | 8 µg/mL (≈ 7.39 µM) | 1 µg/mL (≈ 0.923 µM) | 2 µg/mL (≈ 1.85 µM) | 0.12 µg/mL (≈ 0.111 µM) | 0.12 µg/mL (≈ 0.111 µM) | 128 | 4 µg/mL (≈ 3.69 µM) | 32 | 16 µg/mL (≈ 14.8 µM)
CC[C@H]1OC(=O)[C@H](C)[C@@H](O[C@H]2C[C@@](C)(OC)[C@@H](OC(=O)NCCCCNC(=O)c3ccc(OC)cc3)[C@H](C)O2)[C@H](C)[C@@H](O[C@@H]2O[C@H](C)C[C@H](N(C)C)[C@H]2O)[C@](C)(O)C[C@@H](C)CN(C)[C@H](C)[C@H]2OC(=O)O[C@@]21C |  |  | 16 µg/mL (≈ 15.6 µM) | 4 µg/mL (≈ 3.91 µM) | 4 µg/mL (≈ 3.91 µM) | 0.25 µg/mL (≈ 0.244 µM) | 1 µg/mL (≈ 0.977 µM) |  | 32 µg/mL (≈ 31.3 µM) |  | 1 µg/mL (≈ 0.977 µM)
CC[C@H]1OC(=O)[C@H](C)[C@@H](O[C@H]2C[C@@](C)(OC)[C@@H](OC(=O)NCCCCNC(=O)c3ccc(OC)c(OC)c3)[C@H](C)O2)[C@H](C)[C@@H](O[C@@H]2O[C@H](C)C[C@H](N(C)C)[C@H]2O)[C@](C)(O)C[C@@H](C)CN(C)[C@H](C)[C@H]2OC(=O)O[C@@]21C |  |  | 32 µg/mL (≈ 30.4 µM) | 32 µg/mL (≈ 30.4 µM) | 8 µg/mL (≈ 7.6 µM) | 1 µg/mL (≈ 0.949 µM) | 2 µg/mL (≈ 1.9 µM) |  | 64 µg/mL (≈ 60.8 µM) |  | 16 µg/mL (≈ 15.2 µM)
CC[C@H]1OC(=O)[C@H](C)[C@@H](O[C@H]2C[C@@](C)(OC)[C@@H](OC(=O)NNC(=O)c3ccccc3OC)[C@H](C)O2)[C@H](C)[C@@H](O[C@@H]2O[C@H](C)C[C@H](N(C)C)[C@H]2O)[C@](C)(O)C[C@@H](C)CN(C)[C@H](C)[C@H]2OC(=O)O[C@@]21C |  |  | 32 µg/mL (≈ 33.1 µM) | 8 µg/mL (≈ 8.27 µM) | 4 µg/mL (≈ 4.14 µM) | 0.5 µg/mL (≈ 0.517 µM) | 1 µg/mL (≈ 1.03 µM) |  | 16 µg/mL (≈ 16.5 µM) |  | 16 µg/mL (≈ 16.5 µM)
CC[C@H]1OC(=O)[C@H](C)[C@@H](O[C@H]2C[C@@](C)(OC)[C@@H](OC(=O)NCCCCNC(=O)c3ccc(Br)cc3)[C@H](C)O2)[C@H](C)[C@@H](O[C@@H]2O[C@H](C)C[C@H](N(C)C)[C@H]2O)[C@](C)(O)C[C@@H](C)CN(C)[C@H](C)[C@H]2OC(=O)O[C@@]21C |  |  | 16 µg/mL (≈ 14.9 µM) | 8 µg/mL (≈ 7.46 µM) | 8 µg/mL (≈ 7.46 µM) | 1 µg/mL (≈ 0.933 µM) | 1 µg/mL (≈ 0.933 µM) |  | 32 µg/mL (≈ 29.8 µM) |  | 32 µg/mL (≈ 29.8 µM)
CC[C@H]1OC(=O)[C@H](C)[C@@H](O[C@H]2C[C@@](C)(OC)[C@@H](OC(=O)NCCNC(=O)c3ccc(F)cc3)[C@H](C)O2)[C@H](C)[C@@H](O[C@@H]2O[C@H](C)C[C@H](N(C)C)[C@H]2O)[C@](C)(O)C[C@@H](C)CN(C)[C@H](C)[C@H]2OC(=O)O[C@@]21C |  |  | 32 µg/mL (≈ 32.5 µM) | 4 µg/mL (≈ 4.07 µM) | 16 µg/mL (≈ 16.3 µM) | 1 µg/mL (≈ 1.02 µM) | 1 µg/mL (≈ 1.02 µM) |  | 16 µg/mL (≈ 16.3 µM) |  | 2 µg/mL (≈ 2.03 µM)
CC[C@H]1OC(=O)[C@H](C)[C@@H](O[C@H]2C[C@@](C)(OC)[C@@H](OC(=O)NCCCCNC(=O)c3ccc(C)cc3)[C@H](C)O2)[C@H](C)[C@@H](O[C@@H]2O[C@H](C)C[C@H](N(C)C)[C@H]2O)[C@](C)(O)C[C@@H](C)CN(C)[C@H](C)[C@H]2OC(=O)O[C@@]21C |  |  | 16 µg/mL (≈ 15.9 µM) | 8 µg/mL (≈ 7.94 µM) | 4 µg/mL (≈ 3.97 µM) | 1 µg/mL (≈ 0.993 µM) | 0.5 µg/mL (≈ 0.496 µM) |  | 32 µg/mL (≈ 31.8 µM) |  | 64 µg/mL (≈ 63.5 µM)
CC[C@H]1OC(=O)[C@H](C)[C@@H](O[C@H]2C[C@@](C)(OC)[C@@H](OC(=O)NNC(=O)c3ccc(Cl)cc3Cl)[C@H](C)O2)[C@H](C)[C@@H](O[C@@H]2O[C@H](C)C[C@H](N(C)C)[C@H]2O)[C@](C)(O)C[C@@H](C)CN(C)[C@H](C)[C@H]2OC(=O)O[C@@]21C |  |  | 16 µg/mL (≈ 15.9 µM) | 4 µg/mL (≈ 3.98 µM) | 4 µg/mL (≈ 3.98 µM) | 0.25 µg/mL (≈ 0.249 µM) | 1 µg/mL (≈ 0.994 µM) |  | 16 µg/mL (≈ 15.9 µM) |  | 16 µg/mL (≈ 15.9 µM)
CC[C@H]1OC(=O)[C@H](C)[C@@H](O[C@H]2C[C@@](C)(OC)[C@@H](O)[C@H](C)O2)[C@H](C)[C@@H](O[C@@H]2O[C@H](C)C[C@H](N(C)C)[C@H]2O)[C@](C)(O)C[C@@H](C)CN(C)[C@H](C)[C@@H](O)[C@]1(C)O [AZITHROMYCIN] |  |  | 256 µg/mL (≈ 342 µM) | 128 µg/mL (≈ 171 µM) | 0.25 µg/mL (≈ 0.334 µM) | 4 µg/mL (≈ 5.34 µM) | 0.03 µg/mL (≈ 0.0401 µM) |  | 1 µg/mL (≈ 1.34 µM) |  | 0.12 µg/mL (≈ 0.16 µM)
CC[C@H]1OC(=O)[C@H](C)[C@@H](O[C@H]2C[C@@](C)(OC)[C@@H](OC(=O)NCCNC(=O)c3ccc(OC)c(OC)c3)[C@H](C)O2)[C@H](C)[C@@H](O[C@@H]2O[C@H](C)C[C@H](N(C)C)[C@H]2O)[C@](C)(O)C[C@@H](C)CN(C)[C@H](C)[C@H]2OC(=O)O[C@@]21C |  |  | 64 µg/mL (≈ 62.4 µM) | 32 µg/mL (≈ 31.2 µM) | 4 µg/mL (≈ 3.9 µM) | 4 µg/mL (≈ 3.9 µM) | 2 µg/mL (≈ 1.95 µM) |  | 32 µg/mL (≈ 31.2 µM) |  | 8 µg/mL (≈ 7.8 µM)
